Measured values as given in patent publication US20120128628A1, “COMBINATION OF A NUCLEOSIDE POLYMERASE INHIBITOR WITH A MACROCYCLIC PROTEASE INHIBITOR AND USE THEREOF IN THE TREATMENT OF HEPATITIS C, LIVER FIBROSIS AND IMPAIRED LIVER FUNCTION (as amended)” (priority 2009, published 2012).

How the values were obtained:
[1] = system: HCV replication; conditions: cited from earlier work
[2] = system: chronic hepatitis C genotype 1; test: HCV RNA viral load determination (COBAS AmpilPrep/COBAS Taqman HCV Test RUO) in a dose ranging study in patients; assay type: in vivo, Hepatitis C virus; conditions: monotherapy 750 mg, bid; after 7 days of treatment
Method: A randomized, double-blind, placebo controlled, dose ranging study of Compound 1a and Compound 2 in adult patients with chronic hepatitis C genotype 1 was conducted. Approximately 54 treatment naïve males and females between 18 and 65 years of age (inclusive) with genotype 1 HCV infection who had not previously been treated with an interferon or investigational HCV therapeutic agent were enrolled. Approximately an additional 20 treatment patients who had failed treatment with the current standard of care (null, partial responders and relapsers) were enrolled. […] Subjects with liver cirrhosis or incomplete/transition to cirrhosis, or other forms of liver disease, anemia, HIV or HBV infection, hepatocellular carcinoma, cardiac disease or renal disease were excluded from this particular protocol, as well as pregnant or lactating women, women of childbearing potential, and male partners of women who are pregnant or lactating.
Seven groups, Groups I, II, III, IV, V, VI and VII, of subjects were studied. Blood samples were collected at time points to determine pharmacokinetics parameters, including Tmax, Cmax, Kel, T1/2, AUC, CL/F, Vd/F and accumulation ratio.
The specifics of Groups I, II, III, IV, V, VI and VII are shown in Table 1 below and pictorially in FIGS. 2 and 3. Group I included two arms with 8 subjects in Arm 1 and 8 subjects in Arm 2. […]

[3] = prodrug compared to Compound 1; cited from earlier work

Compound	inhibiting HCV replication [1]	anti-viral efficacy ([1]; prodrug compared to Compound 1)	mean log change from baseline of HCV RNA viral load [2]	permeability [3]	plasma exposure [3]
C[C@@]1(F)[C@H](O)[C@@H](CO)O[C@H]1n1ccc(N)nc1=O [Compound 1, β-D-2′-deoxy-2′-fluoro-2′-C-methylcytidine]	effective in inhibiting HCV replication				
CC(C)(C)OC(=O)N[C@H]1CCCCCC=C[C@@H]2C[C@@]2(C(=O)NS(=O)(=O)C2CC2)NC(=O)[C@@H]2C[C@@H](OC(=O)N3Cc4cccc(F)c4C3)CN2C1=O [Compound 2, (1S,4R,6S,14S,18R)-4-Fluoro-1,3-dihydro-isoindole-2-carboxylic acid 14-tert-butoxycarbonylamino-4-cyclopropanesulfonylaminocarbonyl-2,15-dioxo-3,16-diaza-tricyclo[14.3.0.04,6]nonadec-7-en-18-yl ester]	effective in inhibiting HCV replication				
diisobutyl ester prodrug of β-D-2′-deoxy-2′-fluoro-2′-C-methylcytidine [Compound 1a]		improved anti-viral efficacy	−1.3 log10 IU/mL	increased permeability	increased plasma exposure
